Consider 3 molecules from patent US10865203B2, “Ligands selective to alpha 6 subunit-containing GABAA receptors and their methods of use” (UWM Research Foundation, Inc., priority 2015, dated 2020).

Data set [1] concerns mice, elevated plus maze. Kind of data set: Elevated plus maze (EPM) test. To be noted: 3 mg/kg or 10 mg/kg i.p., 10 min before the tests. The class given is in vivo, mouse. The method, then:
The epm test was conducted in a plexiglas maze apparatus (San Diego Instruments, San Diego, Calif.), consisting of a central platform (5×5 cm) with four arms (30×5 cm); two open and two closed arms with 25 cm-high sidewalls. The maze is elevated 38.5 cm from the room's floor. The mouse was placed at the central platform of the maze facing one of open arms and its behaviors in the maze were video-recorded and analyzed every 5 min-test session by the ethovision video tracking system (noldus information technology, wageningen, netherlands). The time spent for each mouse in the open or closed arm or the central platform as well as the distances traveled in the open or closed arm were measured. The degree of anxiety was accessed by the ratio of the time spent or the distance traveled in two open arms in a 5 min-test session.

A short description of data set [2]: Half-life in liver microsomes (Example 4). The class given is in vitro ADME. To be noted: rat and human liver microsomes, species of the value not stated. The source says:
Metabolic pathways that may disrupt the activity of compounds with aryl methoxy groups were investigated.

Data set [3] deals with mice, forelimb grip strength. In words: Grip strength test. It counts as in vivo, mouse. The settings on record: 3 mg/kg, 15 min after treatment. The method, then:
Forelimb grip strength was measured by the grip force of forepaws of the mouse using the sdi grip strength system (San Diego Instrument, San Diego, Calif.). The grip strength was recorded by the maximum of three permissible readings (in grams). The test was conducted every 2 min for three times, and the averaged grip strength was recorded. Animals were treated with the tested drug or vehicle for 15 min before the test.

Data set [4] has as its system male Wistar rats. In words: Rotarod performance, pilot experiment. It counts as in vivo, rat. To be noted: acute, dose range 10-55 mg/kg, 20 min after administration. (The rotarod test checks motor coordination on a turning rod.)
Data set [5] is described as follows: Rapid equilibrium dialysis assay, free fraction. The class given is in vitro ADME. The settings on record: rat, read-out: free fraction in rat blood. A general note: In equilibrium dialysis free small molecules cross a membrane that holds back macromolecules.
Description: Five pharmacokinetic studies have been performed; four in male Wistar rats and one in male Swiss mice.
Data set [6] has as its system HEPG2 cell line. In words: Cytotoxicity study, CellTiter-Glo cell viability. The class given is cell-based, Human. The settings on record: HEPG2, 48 hours incubation. The method, then:
Reagents and Instrumentation: Human liver hepatocellular carcinoma (HEPG2) cell line was purchased (ATCC) and cultured in 75 cm2 flasks (CellStar). Cells were grown in DMEM/High Glucose (Hyclone, #SH3024301) media to which non-essential amino acids (Hyclone, #SH30238.01), 10 mM HEPES (Hyclone, #SH302237.01), 5×106 units of penicillin and streptomycin (Hyclone, #SV30010), and 10% of heat inactivated fetal bovine serum (Gibco, #10082147) were added. Cells were harvested using 0.05% Trypsin (Hyclone, #SH3023601), which disrupts the cell monolayer and proteolytically cleaves the bonds between the cells and flask. The cell viability assay was evaluated using CellTiter-Glo™ Luminescent Cell Viability Assay Kit (Promega, Madison, Wis.) which contains luciferase and all its substrate except ATP. The controls for the cytotoxicity assay used were (E)-10-(bromotriphenylphosphoranyl)decyl 4-(4-(tert-butyl)phenyl)-4-oxobut-2-enoate (400 μM in DMSO, positive control) and DMSO (negative control). Cell culture was performed in a Baker Company Class II Biological Safety Cabinet. All luminescence readings were performed on a Tecan Infinite M1000 plate reader. Small volume transfers were performed on the Tecan Freedom EVO liquid handling system with a 100 nL pin tool transfer (V&P Scientific). Serial dilutions were done in 96-well polypropylene plates (Corning, #3365) and assays were conducted in 384-well white optical bottom plates.
Luminescence-Based VDR-Mediated Transcription Assay Protocol: After 48 hours of incubation at 37 °C with 5% CO2, the cells were harvested with 4 mL of 0.05% Trypsin, added to 10 mL of the assay buffer, DMEM/High Modified buffer without phenol red, and spun down for 3 minutes at 1000 rpm. The media was removed and cells were resuspended in the DMEM assay media. To each well, 40 μL of cells were added to yield a final concentration of 15,000 cells per well. The plates were then spun down for 2 minutes at 1000 rpm. After 2 hours, plated cells were treated with 100 nL×4 of small molecules and controls which were added using the pin tool. After 48 hours of incubation at 37 °C with 5% CO2, 20 μL of Cell Titer-Glo™ Luminescence Assay Kit (cytotoxicity assay) were added and luminescence was read. Controls were measured within each plate to determine the z′ factor (Equation 1) and to enable data normalization. Three independent experiments were performed in quadruplicate and data was analyzed using nonlinear regression with variable slope (GraphPrism, Equation 2). The luminescence intensity of control (untreated) cells was taken as 100% viability, and the relative cell viability compared to control was calculated. Data are presented as the means±SEM of a series of three experiments.
On the technique in general: ATP-based viability assays read luminescence as a measure of living cells.

The structures appear in SMILES notation.

The term half-life denotes the time needed for the level to fall by half in the phase considered. A high value points to slow decline. Turning to `COc1ccc(-n2nc3c4ccc(OC)cc4[nH]cc-3c2=O)cc1` [Compound 6, 7-Methoxy-2-(4-methoxyphenyl)-2,5-dihydro-3H-pyrazolo[4,3-c]quinolin-3-one], the anxiolytic activity result in data set [1] is reported as “neither displayed any significant”. This molecule displayed a half-life in data set [2] of 2.92 h. Besides, the grip strength result in data set [3] is on record as “did not affect”.
For `[2H]C([2H])([2H])Oc1ccc(-n2nc3c4ccc(OC)cc4[nH]cc-3c2=O)cc1` [DK-I-56-1, 7-Methoxy-2-(4-methoxy-d3-phenyl)-2,5-dihydro-3H-pyrazolo[4,3-c]quinolin-3-one], the rotarod performance entry in data set [4] is reported as “did not impair”. The fraction unbound in data set [5] is below 0.005. In addition, in data set [6], the “toxicity at 400 μM” value is recorded as “non-toxic”.
In the case of `[2H]C([2H])([2H])Oc1ccc2c3nn(-c4ccc(OC)nc4)c(=O)c-3c[nH]c2c1` [DK-I-86-1, 7-Methoxy-d3-2-(6-methoxypyridin-3-yl)-2,5-dihydro-3H-pyrazolo[4,3-c]quinolin-3-one], the “toxicity at 400 μM” value in data set [6] is “non-toxic”.
